For experiment [1], the target named is human sodium channels Nav 1.8 (Homo sapiens (Human), UniProt Q9Y5Y9). Briefly: Automated whole-cell voltage-clamp (ScreenPatch 384P), Nav 1.8 sodium current, Protocol 1. It is filed as cell-based. The note with it: CHO cells expressing human Nav 1.8; for IC50: Protocol 1 (holding −90 mV, 0.1 Hz), room temperature, read-out: Nav1.8 IC50; for inhibition at 10 µM: Protocol 1, read-out: Nav1.8 percent of inhibition (IC50 value not available). The method, then:
(§1) Biological assays were performed on Chinese hamster ovary (CHO) cells expressing the human sodium channels Nav 1.8 and Nav 1.7 stably.
(§2) The experimental voltage-clamp protocol using the whole cell configuration was established on the automated ScreenPatch® 384P platform (SP384PE, Nanion Technologies, Livingston, NJ) and recording of the results was performed with a Nanion 384-well Patch Clamp chip (NPC) (Nanion Technologies, Livingston, NJ).
(§3) Compounds of Formula (I), were diluted in eight concentrations in the extracellular solution composed of physiological saline, buffered with HEPES (mM): NaCl, 137; KCl, 4; CaCl2, 3.8; MgCl2, 1; HEPES, 10; Glucose, 10; pH 7.4. The […], 50; CsF, 90; MgCl2, 5; EGTA, 5; HEPES, 10; pH 7.2. The duration of exposure of each compound with the cells expressing Nav 1.7 or Nav 1.8 was at least five minutes and the assays were performed at room temperature.
(§4) The measurements of the sodium currents of Nav 1.8 and Nav 1.7 were obtained using the voltage protocols described below: • Protocol 1: A holding voltage of −90 mV was established followed by a voltage phase of 200 ms to −120 mV, followed by a voltage step of 10 mV for 1 second for Nav 1.8 or 0 mV for Nav 1.7, followed by a step of −100 mV for 20 ms, followed by a step of 20 ms for 10 mV for Nav 1.8 or 0 mV for Nav 1.7 (TP1A) before returning to the holding voltage of −90 mV. • Protocol 2: A holding voltage of −100 mV was established followed by an inactivation voltage step at −40 mV for 8 seconds, followed by a −100 mV step for […], followed by a 20 ms step for 10 mV for Nav 1.8 or 0 mV for Nav 1.7 (TP1A) before returning to the holding voltage of −100 mV.
(§5) Protocols were repeated at a frequency of 0.1 Hz (Protocol 1) or 0.05 Hz (Protocol 2) and current amplitude was quantified over the TP1A phase log. The variation in the peak amplitude of the current was evaluated according to the Formula described below, after exposure of the cells expressing the channels, at each concentration of the different compounds:
(§6) [formula] • where |TP1A, basal, and |TP1A, molecule represent the entry peaks of sodium currents into TP1A prior to exposure to the compound and in the presence of the compound, respectively.
(§7) The decrease in peak current amplitude, after exposure of the cells to the compounds, was used to calculate the percent relative blocking of the channels relative to the positive control according to the Formula below:
(§8) [formula] • where % V and % CP represent the averages of the values of current inhibition with a vehicle (DMSO) and positive controls, respectively. The sodium currents of the positive control were considered as 100%.
(§9) [formula] • where [Test] represents the concentration of the evaluated molecule, IC50 is the concentration of the compound that generates half of the maximum inhibition, N is the Hill's coefficient and % Block′ is the percentage of the sodium channel current (Nav 1.8 and Nav 1.7) inhibited at each concentration of the evaluated molecule. Data were obtained by non-linear least squares regression with XLfit for Excel (Microsoft, Redmond, WA).
(§10) Compounds were tested in at least one assay to obtain the IC50 value.

Experiment [2] concerns the target human sodium channels Nav 1.7 (Homo sapiens (Human), UniProt Q15858). In words: Automated whole-cell voltage-clamp (ScreenPatch 384P), Nav 1.7 sodium current, Protocol 1. The note with it: CHO cells expressing human Nav 1.7; for IC50: Protocol 1 (holding −90 mV, 0.1 Hz), room temperature, read-out: Nav1.7 IC50; for inhibition at 10 µM: Protocol 1, read-out: Nav1.7 percent of inhibition (IC50 value not available). It is filed as cell-based. As to the method:
as §1, §2, §3, §4, §5, §6, §7, §8, §9, §10

We go through 25 compounds from patent publication US20240335420A1, “N-ACYLHYDRAZONE COMPOUNDS CAPABLE OF INHIBITING NAV 1.7 AND/OR NAV 1.8, PROCESSES FOR THE PREPARATION THEREOF, COMPOSITIONS, USES, METHODS FOR TREATMENT USING SAME AND KITS” (EUROFARMA LABORATÓRIOS S.A., priority 2021, published 2024).

Bounds are passed on as bounds.

The IC50 is the point on the concentration scale where inhibition reaches its midpoint. Broadly, the inhibition is the change of the read-out against control, counted positive when it falls.

human sodium channels Nav 1.7, sequence (Q15858 whole entry): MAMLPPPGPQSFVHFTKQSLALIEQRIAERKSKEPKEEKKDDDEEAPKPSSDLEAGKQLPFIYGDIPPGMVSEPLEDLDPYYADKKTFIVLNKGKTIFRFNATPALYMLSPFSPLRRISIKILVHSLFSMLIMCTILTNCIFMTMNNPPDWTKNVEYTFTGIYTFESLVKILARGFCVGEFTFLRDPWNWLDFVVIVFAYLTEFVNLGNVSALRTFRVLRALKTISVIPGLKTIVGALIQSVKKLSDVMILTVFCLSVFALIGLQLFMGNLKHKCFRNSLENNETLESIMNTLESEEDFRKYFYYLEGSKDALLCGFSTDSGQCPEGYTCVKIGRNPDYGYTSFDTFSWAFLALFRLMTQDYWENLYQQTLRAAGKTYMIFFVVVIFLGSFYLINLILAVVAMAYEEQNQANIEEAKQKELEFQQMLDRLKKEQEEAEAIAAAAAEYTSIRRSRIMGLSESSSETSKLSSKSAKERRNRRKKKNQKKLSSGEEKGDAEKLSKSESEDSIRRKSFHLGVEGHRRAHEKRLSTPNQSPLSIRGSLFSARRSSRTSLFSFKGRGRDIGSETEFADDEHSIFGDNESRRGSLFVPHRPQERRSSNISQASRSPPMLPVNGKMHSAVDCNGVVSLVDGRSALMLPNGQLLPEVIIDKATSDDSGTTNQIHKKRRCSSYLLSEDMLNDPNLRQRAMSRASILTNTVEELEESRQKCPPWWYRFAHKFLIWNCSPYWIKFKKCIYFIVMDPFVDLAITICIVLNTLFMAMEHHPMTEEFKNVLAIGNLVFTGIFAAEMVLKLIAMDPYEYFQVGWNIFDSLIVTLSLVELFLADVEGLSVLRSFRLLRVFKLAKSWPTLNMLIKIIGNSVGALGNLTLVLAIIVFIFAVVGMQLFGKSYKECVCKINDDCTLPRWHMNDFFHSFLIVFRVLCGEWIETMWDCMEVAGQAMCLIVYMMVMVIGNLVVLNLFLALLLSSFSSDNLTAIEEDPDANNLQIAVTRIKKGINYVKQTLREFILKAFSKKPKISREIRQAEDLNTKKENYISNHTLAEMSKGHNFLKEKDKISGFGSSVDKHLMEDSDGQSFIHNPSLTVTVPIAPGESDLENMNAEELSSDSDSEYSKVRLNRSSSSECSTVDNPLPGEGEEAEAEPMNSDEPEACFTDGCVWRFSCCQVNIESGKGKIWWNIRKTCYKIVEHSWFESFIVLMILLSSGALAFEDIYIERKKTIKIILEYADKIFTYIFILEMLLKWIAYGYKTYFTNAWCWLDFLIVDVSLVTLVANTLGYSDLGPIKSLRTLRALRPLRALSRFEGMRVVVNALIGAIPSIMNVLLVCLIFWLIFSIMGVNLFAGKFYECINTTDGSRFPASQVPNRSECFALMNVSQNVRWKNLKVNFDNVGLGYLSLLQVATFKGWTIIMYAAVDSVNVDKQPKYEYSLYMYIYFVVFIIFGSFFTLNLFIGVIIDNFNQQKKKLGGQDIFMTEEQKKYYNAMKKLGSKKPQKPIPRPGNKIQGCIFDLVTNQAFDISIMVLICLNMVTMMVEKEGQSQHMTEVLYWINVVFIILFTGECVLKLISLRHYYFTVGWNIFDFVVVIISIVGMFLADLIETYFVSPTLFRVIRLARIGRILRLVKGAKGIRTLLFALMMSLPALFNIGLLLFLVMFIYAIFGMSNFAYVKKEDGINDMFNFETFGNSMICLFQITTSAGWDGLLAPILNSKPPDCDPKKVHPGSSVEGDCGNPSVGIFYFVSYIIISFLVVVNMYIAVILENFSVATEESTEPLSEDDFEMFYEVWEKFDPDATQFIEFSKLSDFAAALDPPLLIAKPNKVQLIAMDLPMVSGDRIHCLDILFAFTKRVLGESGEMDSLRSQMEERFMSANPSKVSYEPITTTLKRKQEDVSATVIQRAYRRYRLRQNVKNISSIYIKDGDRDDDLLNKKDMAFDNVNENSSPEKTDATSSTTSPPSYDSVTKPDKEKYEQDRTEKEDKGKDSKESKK
human sodium channels Nav 1.8, sequence (Q9Y5Y9 whole entry): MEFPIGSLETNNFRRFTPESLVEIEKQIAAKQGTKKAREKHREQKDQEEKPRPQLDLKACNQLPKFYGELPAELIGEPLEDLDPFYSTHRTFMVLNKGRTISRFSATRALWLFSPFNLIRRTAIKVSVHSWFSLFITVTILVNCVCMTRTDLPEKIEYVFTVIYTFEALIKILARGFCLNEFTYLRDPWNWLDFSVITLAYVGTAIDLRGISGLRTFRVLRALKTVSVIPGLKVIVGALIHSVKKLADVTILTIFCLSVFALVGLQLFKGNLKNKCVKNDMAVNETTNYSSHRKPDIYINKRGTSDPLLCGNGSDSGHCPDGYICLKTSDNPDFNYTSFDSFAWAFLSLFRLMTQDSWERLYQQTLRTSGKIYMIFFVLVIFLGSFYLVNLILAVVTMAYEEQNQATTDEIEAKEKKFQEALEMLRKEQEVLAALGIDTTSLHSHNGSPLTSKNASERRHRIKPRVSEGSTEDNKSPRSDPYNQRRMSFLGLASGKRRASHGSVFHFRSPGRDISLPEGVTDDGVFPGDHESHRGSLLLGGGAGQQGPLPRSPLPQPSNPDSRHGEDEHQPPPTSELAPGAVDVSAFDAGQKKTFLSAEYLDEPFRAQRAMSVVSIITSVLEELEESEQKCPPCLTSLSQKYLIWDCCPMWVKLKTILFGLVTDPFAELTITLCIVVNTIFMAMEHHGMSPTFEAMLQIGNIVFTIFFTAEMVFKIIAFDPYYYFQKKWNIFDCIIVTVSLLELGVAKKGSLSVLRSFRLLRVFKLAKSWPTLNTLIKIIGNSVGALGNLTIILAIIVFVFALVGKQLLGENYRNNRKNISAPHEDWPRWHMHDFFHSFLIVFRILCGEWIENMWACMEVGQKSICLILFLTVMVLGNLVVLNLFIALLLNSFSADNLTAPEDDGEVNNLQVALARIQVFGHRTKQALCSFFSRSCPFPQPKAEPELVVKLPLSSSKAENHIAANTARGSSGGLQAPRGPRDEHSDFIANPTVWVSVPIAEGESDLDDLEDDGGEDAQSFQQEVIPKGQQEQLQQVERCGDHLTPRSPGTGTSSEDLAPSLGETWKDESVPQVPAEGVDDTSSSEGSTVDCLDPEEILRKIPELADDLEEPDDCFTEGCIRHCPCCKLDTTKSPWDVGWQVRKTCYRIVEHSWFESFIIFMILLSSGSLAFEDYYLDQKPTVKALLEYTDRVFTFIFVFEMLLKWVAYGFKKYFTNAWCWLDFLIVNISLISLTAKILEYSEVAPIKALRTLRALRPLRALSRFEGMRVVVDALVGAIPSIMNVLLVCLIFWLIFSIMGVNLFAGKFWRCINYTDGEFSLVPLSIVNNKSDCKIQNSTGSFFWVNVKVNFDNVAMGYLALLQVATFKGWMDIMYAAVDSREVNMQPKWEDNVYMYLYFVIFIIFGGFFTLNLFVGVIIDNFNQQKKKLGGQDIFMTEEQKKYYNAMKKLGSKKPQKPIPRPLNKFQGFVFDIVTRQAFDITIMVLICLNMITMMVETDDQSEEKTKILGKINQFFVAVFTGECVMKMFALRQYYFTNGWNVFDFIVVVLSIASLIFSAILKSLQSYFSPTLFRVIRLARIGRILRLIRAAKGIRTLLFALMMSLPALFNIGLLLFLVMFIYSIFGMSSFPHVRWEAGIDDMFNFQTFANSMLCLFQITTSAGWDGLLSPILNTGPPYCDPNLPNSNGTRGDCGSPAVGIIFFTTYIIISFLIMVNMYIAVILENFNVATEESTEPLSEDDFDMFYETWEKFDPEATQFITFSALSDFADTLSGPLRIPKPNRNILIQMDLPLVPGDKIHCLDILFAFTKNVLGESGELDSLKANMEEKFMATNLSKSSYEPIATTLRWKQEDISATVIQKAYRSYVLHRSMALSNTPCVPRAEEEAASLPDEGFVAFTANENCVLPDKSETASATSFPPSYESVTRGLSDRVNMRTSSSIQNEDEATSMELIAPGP

For `COc1cc(/C=N/NC(=O)c2ccnc(-c3ccc(OC4CCCC4)cc3)n2)cc(OC)c1` [Compound 55, (E)-2-(4-(cyclopentyloxy)phenyl)-N′-(3,5-dimethoxybenzylidene)pyrimidine-4-carbohydrazide], the IC50 in experiment [1] and in experiment [2] was > 10 µM throughout.
As to `CCOc1ccc(-c2ccc(C(=O)N/N=C/c3cccnc3N3CCOCC3)o2)cc1` [Compound 4, (E)-5-(4-ethoxyphenyl)-N′-((2-morpholinopyridin-3-yl)methylene) furan-2-carbohydrazide], the inhibition at 10 µM in experiment [1] and in experiment [2] was < 10% throughout.
For `O=C(N/N=C/c1cccs1)c1ccc(-c2ccc(OCCN3CCOCC3)cc2)o1` [Compound 9, (E)-5-(4-(2-morpholinoethoxy)phenyl)-N′-(thiophen-2-ylmethylene) furan-2-carbohydrazide], the inhibition at 10 µM in experiment [1] and in experiment [2] was < 10% each time.
`COc1cc(/C=N/N(C)C(=O)c2ccc(-c3ccc(Cl)cc3)o2)cc(OC)c1` [Compound 78, (E)-5-(4-chlorophenyl)-N′-(3,5-dimethoxybenzylidene)-N′-methylfuran-2-carbohydrazide]: the IC50 in experiment [1] and in experiment [2] was > 30 µM in each case.
With `O=C(N/N=C/c1cccs1)c1cc(-c2ccc(OC(F)(F)F)cc2)ccn1` [Compound 51, (E)-N′-(thiophen-2-ylmethylene)-4-(4-(trifluoromethoxy)phenyl) picolinohydrazide], the IC50 in experiment [1] and in experiment [2] was > 10 µM each time.
As to `CCOc1ccc(-c2ccnc(C(=O)N/N=C/c3cc(OC)cc(OC)c3)c2)cc1` [Compound 44, (E)-N′-(3,5-dimethoxybenzylidene)-4-(4-ethoxyphenyl) picolinohydrazide], the IC50 in experiment [1] and in experiment [2] was > 10 µM in each case.
For `CCOc1ccc(-c2ccnc(C(=O)N/N=C/c3cccs3)c2)cc1` [Compound 45, (E)-4-(4-ethoxyphenyl)-N′-(thiophen-2-ylmethylene) picolinohydrazide], the IC50 in experiment [1] and in experiment [2] was > 10 µM in each case.
With `CCOc1ccc(-c2cccc(C(=O)N/N=C/c3ccccc3OC)n2)cc1` [Compound 36, (E)-6-(4-ethoxyphenyl)-N′-(2-methoxybenzylidene) picolinohydrazide], the IC50 was 8.43 µM in experiment [1] and 7.06 µM in experiment [2].
For `CC(C)Oc1ccc(-c2ccc(C(=O)N/N=C/c3cccs3)o2)cc1` [Compound 7, (E)-5-(4-isopropoxyphenyl)-N′-(thiophen-2-ylmethylene) furan-2-carbohydrazide] the same measures were > 6.27 µM and > 16.7 µM.
For `COc1cc(/C=N/NC(=O)c2cc(-c3ccc(OC4CCCC4)cc3)ccn2)cc(OC)c1` [Compound 48, (E)-4-(4-(cyclopentyloxy)phenyl)-N′-(3,5-dimethoxybenzylidene) picolinohydrazide] the same measures were > 10 µM and > 10 µM.
For the compound `CC(C)Oc1ccc(-c2ccnc(C(=O)N/N=C/c3cccs3)c2)cc1` [Compound 47, (E)-4-(4-isopropoxyphenyl)-N′-(thiophen-2-ylmethylene) picolinohydrazide], the IC50 in experiment [1] and in experiment [2] was > 10 µM in each case.
With `COc1cc(/C=N/NC(=O)c2ccnc(-c3ccc(OC(C)C)cc3)c2)cc(OC)c1` [Compound 23, (E)-N′-(3,5-dimethoxybenzylidene)-2-(4-isopropoxyphenyl) isonicotinohydrazide], the IC50 in experiment [1] and in experiment [2] was > 10 µM in each case.
Turning to `COc1cc(/C=N/NC(=O)c2cc(-c3ccc(OC(F)(F)F)cc3)ccn2)cc(OC)c1` [Compound 49, (E)-N′-(3,5-dimethoxybenzylidene)-4-(4-(trifluoromethoxy)phenyl) picolinohydrazide], the IC50 in experiment [1] and in experiment [2] was > 10 µM in each case.
Take `CCOc1ccc(-c2cccc(C(=O)N/N=C/c3ccccc3F)n2)cc1` [Compound 32, (E)-6-(4-ethoxyphenyl)-N′-(2-fluorobenzylidene) picolinohydrazide]: the results for the IC50 in experiment [1] and in experiment [2] were 1.36 µM and 1.04 µM, respectively.
The like results for `COc1ccc(-c2cncc(C(=O)N/N=C/c3cc(OC)cc(OC)c3)c2)cc1` [Compound 25, (E)-N′-(3,5-dimethoxybenzylidene)-5-(4-methoxyphenyl) nicotinohydrazide] were, in that order, > 10 µM and > 10 µM.
Regarding `O=C(N/N=C/c1cccs1)c1cccc(-c2ccc(Cl)cc2)n1` [Compound 11, (E)-6-(4-chlorophenyl)-N′-(thiophen-2-ylmethylene) picolinohydrazide], the values for the IC50 in experiment [1] and in experiment [2] were 8.58 µM and 12 µM, respectively.
For `CCCCOc1ccc(-c2nccc(C(=O)N/N=C/c3cc(OC)cc(OC)c3)n2)cc1` [Compound 59, (E)-2-(4-butoxyphenyl)-N′-(3,5-dimethoxybenzylidene)pyrimidine-4-carbohydrazide] the same measures were > 10 µM and > 10 µM.
For `O=C(N/N=C/c1cccs1)c1cc(-c2ccc(Cl)cc2)ccn1` [Compound 43, (E)-4-(4-chlorophenyl)-N′-(thiophen-2-ylmethylene) picolinohydrazide] the same measures were > 10 µM and > 10 µM.
Regarding `COc1cc(/C=N/NC(=O)c2ccnc(-c3ccc(OC(F)(F)F)cc3)n2)cc(OC)c1` [Compound 56, (E)-N′-(3,5-dimethoxybenzylidene)-2-(4-(trifluoromethoxy)phenyl) pyrimidine-4-carbohydrazide], the IC50 in experiment [1] and in experiment [2] was > 10 µM throughout.
On to `COc1cc(/C=N/NC(=O)c2cc(-c3ccc(OC(C)C)cc3)ccn2)cc(OC)c1` [Compound 46, (E)-N′-(3,5-dimethoxybenzylidene)-4-(4-isopropoxyphenyl) picolinohydrazide], for which the IC50 in experiment [1] and in experiment [2] was > 10 µM each time.
In the case of `COc1cc(/C=N/NC(=O)c2ccnc(-c3ccc(OC(F)(F)F)cc3)c2)cc(OC)c1` [Compound 21, (E)-N′-(3,5-dimethoxybenzylidene)-2-(4-(trifluoromethoxy)phenyl) isonicotinohydrazide], the inhibition at 10 µM in experiment [1] and in experiment [2] was < 10% each time.
With `CCOc1ccc(-c2cccc(C(=O)N/N=C/c3c(Cl)cccc3Cl)n2)cc1` [Compound 34, (E)-N′-(2,6-dichlorobenzylidene)-6-(4-ethoxyphenyl) picolinohydrazide], the IC50 in experiment [1] and in experiment [2] was > 10 µM in each case.
Turning to `COc1ccc(-c2cc(C(=O)N/N=C/c3cc(OC)cc(OC)c3)ccn2)cc1` [Compound 29, (E)-N′-(3,5-dimethoxybenzylidene)-2-(4-methoxyphenyl) isonicotinohydrazide], the IC50 in experiment [1] and in experiment [2] was > 10 µM each time.
Regarding `CCCOc1ccc(-c2cc(C(=O)N/N=C/c3cc(OC)cc(OC)c3)ccn2)cc1` [Compound 30, (E)-N′-(3,5-dimethoxybenzylidene)-2-(4-propoxyphenyl) isonicotinohydrazide], the IC50 in experiment [1] and in experiment [2] was > 10 µM each time.
On to `CCOc1ccc(-c2ccc(C(=O)N/N=C/c3cc(CN(C)C)cs3)o2)cc1` [Compound 5, (E)-N′-((4-((dimethylamino)methyl)thiophen-2-yl)methylene)-5-(4-ethoxyphenyl) furan-2-carbohydrazide], for which the inhibition at 10 µM in experiment [1] and in experiment [2] was < 10% each time.
